The molecules below were run against human recombinant Btk (Homo sapiens, UniProt Q06187) (assay: Btk enzymatic activity assay (Caliper-based kinase assay)). Details: human recombinant Btk 2 nM, ATP 40 μM, room temperature 3 h, compounds of Cpd Table 1.
Type: biochemical
Protocol: A Caliper-based kinase assay (Caliper Life Sciences, Hopkinton, Mass.) was used to measure inhibition of Btk kinase activity of a compound of Formula (IA), (I′) or (I). […] The reaction was then terminated with EDTA, final concentration 20 mM and the phosphorylated reaction product was quantified on a Caliper Desktop Profiler (Caliper LabChip 3000). […] This value is presented as the IC50.

Sequence of human recombinant Btk (Q06187 whole entry): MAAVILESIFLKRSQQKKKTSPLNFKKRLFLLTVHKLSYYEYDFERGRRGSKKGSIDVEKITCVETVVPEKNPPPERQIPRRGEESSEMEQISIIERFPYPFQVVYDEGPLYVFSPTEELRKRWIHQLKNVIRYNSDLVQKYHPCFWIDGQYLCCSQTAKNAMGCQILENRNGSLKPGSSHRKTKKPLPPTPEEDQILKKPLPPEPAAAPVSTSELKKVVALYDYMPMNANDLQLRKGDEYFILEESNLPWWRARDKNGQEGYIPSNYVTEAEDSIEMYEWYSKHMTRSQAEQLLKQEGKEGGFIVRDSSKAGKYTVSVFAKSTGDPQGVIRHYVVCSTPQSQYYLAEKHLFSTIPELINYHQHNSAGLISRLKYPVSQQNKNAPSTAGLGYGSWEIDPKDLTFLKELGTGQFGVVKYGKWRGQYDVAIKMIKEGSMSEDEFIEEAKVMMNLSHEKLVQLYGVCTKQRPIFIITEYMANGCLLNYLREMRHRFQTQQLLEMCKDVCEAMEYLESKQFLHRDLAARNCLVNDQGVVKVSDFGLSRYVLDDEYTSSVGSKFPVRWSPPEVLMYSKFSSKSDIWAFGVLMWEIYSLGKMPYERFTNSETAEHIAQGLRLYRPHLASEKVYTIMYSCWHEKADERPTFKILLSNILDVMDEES

| IC50 [µM] | SMILES |
| --- | --- |
| 0.98 | COc1cc(-c2nn(C3CCN(C(=O)C(C#N)=CC(C)(C)C)CC3)c3ncnc(N)c23)ccc1Oc1ccc(Cl)c(Cl)c1 [compound 9] |
| 0.0013 | CC(C)(C)C=C(C#N)C(=O)N1CCCC(n2nc(-c3ccc(Oc4ccccc4)cc3)c3c(N)ncnc32)C1 (stereo not drawn) [Example 7, 2-(3-(4-amino-3-(4-phenoxyphenyl)-1H-pyrazolo[3,4-d]pyrimidin-1-yl)piperidine-1-carbonyl)-4,4-dimethylpent-2-enenitrile] |
| 0.006 | CC(Cn1nc(-c2ccc(Oc3ccccc3)cc2F)c2c(N)ncnc21)NC(=O)C(C#N)=CC(C)(C)N (stereo not drawn) [Example 195] |
| 0.014 | N#CC(=CC1CC1)C(=O)NC1CCC(n2nc(-c3ccc(Oc4ccccc4)cc3)c3c(N)ncnc32)CC1 (stereo not drawn) [compound 11] |
| 0.061 | COc1cc(-c2nn(C3CCCN(C(=O)C(C#N)=CC4CC4)C3)c3ncnc(N)c23)ccc1Oc1ccc(Cl)c(Cl)c1 (stereo not drawn) [compound 4] |
| 0.365 | COc1cc(-c2nn(C3CCN(C(=O)C(C#N)=CC4CC4)CC3)c3ncnc(N)c23)ccc1Oc1ccc(Cl)c(Cl)c1 [compound 6] |

| SMILES | IC50 [µM] |
| --- | --- |
| NC(=O)C(=CC1CC1)C(=O)N1CCC[C@@H](n2nc(-c3ccc(Oc4ccccc4F)cc3)c3c(N)ncnc32)C1 [Example 32A] | 0.0017 |

Same assay, conditions: human recombinant Btk 2 nM, ATP 40 μM, room temperature 3 h, compounds of Cpd Table 2

| IC50 [µM] | SMILES |
| --- | --- |
| > 1 | N#CC(=CC1CC1)C(=O)N1CCC(n2nc(-c3ccc(NC(=O)c4ccc(C(F)(F)F)cc4)cc3)c3c(N)ncnc32)CC1 [Table 2-2, N-(4-(4-amino-1-(1-(2-cyano-3-cyclopropylacryloyl)piperidin-4-yl)-1H-pyrazolo[3,4-d]pyrimidin-3-yl)phenyl)-4-(trifluoromethyl)benzamide] |
| 0.18 | CC(C)(C)C=C(C#N)C(=O)N1CCCC1Cn1nc(-c2ccc(NC(=O)c3ccc(C(F)(F)F)cc3)cc2)c2c(N)ncnc21 (stereo not drawn) [Table 2-5, N-(4-(4-amino-1-((1-(2-cyano-4,4-dimethylpent-2-enoyl)pyrrolidin-2-yl)methyl)-1H-pyrazolo[3,4-d]pyrimidin-3-yl)phenyl)-4-(trifluoromethyl)benzamide] |
| 0.013 | CC(C)(C)C=C(C#N)C(=O)N1CCCC(n2nc(-c3ccc(NC(=O)c4ccc(C(F)(F)F)cc4)cc3)c3c(N)ncnc32)C1 (stereo not drawn) [Table 2-3, N-(4-(4-amino-1-(1-(2-cyano-4,4-dimethylpent-2-enoyl)piperidin-3-yl)-1H-pyrazolo[3,4-d]pyrimidin-3-yl)phenyl)-4-(trifluoromethyl)benzamide] |
| 0.062 | N#CC(=CC1CC1)C(=O)N1CCCC(n2nc(-c3ccc(NC(=O)c4ccc(C(F)(F)F)cc4)cc3)c3c(N)ncnc32)C1 (stereo not drawn) [Table 2-1, N-(4-(4-amino-1-(1-(2-cyano-3-cyclopropylacryloyl)piperidin-3-yl)-1H-pyrazolo[3,4-d]pyrimidin-3-yl)phenyl)-4-(trifluoromethyl)benzamide] |
| > 1 | CC(C)(C)C=C(C#N)C(=O)N1CCC(n2nc(-c3ccc(NC(=O)c4ccc(C(F)(F)F)cc4)cc3)c3c(N)ncnc32)CC1 [Table 2-6, N-(4-(4-amino-1-(1-(2-cyano-4,4-dimethylpent-2-enoyl)piperidin-4-yl)-1H-pyrazolo[3,4-d]pyrimidin-3-yl)phenyl)-4-(trifluoromethyl)benzamide] |
| > 1 | CC(C)(C)C=C(C#N)C(=O)NC1CCC(n2nc(-c3ccc(NC(=O)c4ccc(C(F)(F)F)cc4)cc3)c3c(N)ncnc32)CC1 (stereo not drawn) [Table 2-10, N-(4-(4-amino-1-((1s,4s)-4-(2-cyano-4,4-dimethylpent-2-enamido)cyclohexyl)-1H-pyrazolo[3,4-d]pyrimidin-3-yl)phenyl)-4-(trifluoromethyl)benzamide] |
| > 1 | CC(C)(C)C=C(C#N)C(=O)NC1CCC(n2nc(-c3ccc(NC(=O)c4ccc(C(F)(F)F)cc4)cc3)c3c(N)ncnc32)CC1 (stereo not drawn) [Table 2-8, N-(4-(4-amino-1-((1r,4r)-4-(2-cyano-4,4-dimethylpent-2-enamido)cyclohexyl)-1H-pyrazolo[3,4-d]pyrimidin-3-yl)phenyl)-4-(trifluoromethyl)benzamide] |

The molecules below were run against protein target (Homo sapiens, UniProt Q06187) (assay: Reversibility of binding (compound in solution before and after perturbation of the target, HPLC-MS/MS)). Details: after 5 M guanidine hydrochloride denaturation and trypsin digestion.
Protocol: The following approach was developed to differentiate compounds that form irreversible bonds with their targets, such as acrylamide compounds, from compound that bind reversibly. […] The reactions were then treated with perturbations including both denaturation with 5 M guanidine hydrochloride and digestion with trypsin, disrupting proper folding of the target. […] The concentration of compound in solution was assessed both preceding and following perturbation using high performance liquid chromatography (HPLC) coupled to tandem mass spectrometry.

Sequence of protein target (Q06187 2-659): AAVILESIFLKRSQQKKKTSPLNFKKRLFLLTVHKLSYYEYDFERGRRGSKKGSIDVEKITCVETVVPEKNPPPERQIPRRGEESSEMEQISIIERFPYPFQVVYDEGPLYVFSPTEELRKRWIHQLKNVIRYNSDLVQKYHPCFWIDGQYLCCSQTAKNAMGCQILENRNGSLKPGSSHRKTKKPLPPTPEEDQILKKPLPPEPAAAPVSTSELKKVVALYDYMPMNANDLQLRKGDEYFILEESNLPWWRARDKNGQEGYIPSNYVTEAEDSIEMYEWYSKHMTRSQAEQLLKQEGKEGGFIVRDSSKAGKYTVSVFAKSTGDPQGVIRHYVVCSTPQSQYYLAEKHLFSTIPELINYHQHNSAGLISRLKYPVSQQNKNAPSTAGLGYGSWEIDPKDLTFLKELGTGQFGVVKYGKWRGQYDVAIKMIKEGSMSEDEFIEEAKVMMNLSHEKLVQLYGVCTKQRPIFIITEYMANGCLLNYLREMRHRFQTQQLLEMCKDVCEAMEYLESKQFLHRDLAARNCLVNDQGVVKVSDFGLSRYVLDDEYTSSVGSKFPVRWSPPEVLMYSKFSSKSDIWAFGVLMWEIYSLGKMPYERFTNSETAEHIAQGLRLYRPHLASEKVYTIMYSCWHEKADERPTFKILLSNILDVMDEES

| SMILES | compound in solution following perturbation of the target |
| --- | --- |
| N#CC(=CC1CC1)C(=O)N1CCC[C@@H](n2cc(-c3ccc(Oc4ccccc4)cc3)c3c(N)ncnc32)C1 [Example 27, (R)-2-(3-(4-amino-5-(4-phenoxyphenyl)-7H-pyrrolo[2,3-d]pyrimidin-7-yl)piperidine-1-carbonyl)-3-cyclopropylacrylonitrile] | returned to solution |

Same assay, conditions: after denaturation with 5 M guanidine hydrochloride and digestion with trypsin

| SMILES | Compound in solution in the denatured or digested state? |
| --- | --- |
| N#CC(=CC1CC1)C(=O)N1CCC[C@@H](n2cc(-c3ccc(Oc4ccccc4)cc3)c3c(N)ncnc32)C1 [Example 27, (R)-2-(3-(4-amino-5-(4-phenoxyphenyl)-7H-pyrrolo[2,3-d]pyrimidin-7-yl)piperidine-1-carbonyl)-3-cyclopropylacrylonitrile] | yes |

Same assay, conditions: before perturbation

| SMILES | depletion of compound from solution in the native (folded) state |
| --- | --- |
| N#CC(=CC1CC1)C(=O)N1CCC[C@@H](n2cc(-c3ccc(Oc4ccccc4)cc3)c3c(N)ncnc32)C1 [Example 27, (R)-2-(3-(4-amino-5-(4-phenoxyphenyl)-7H-pyrrolo[2,3-d]pyrimidin-7-yl)piperidine-1-carbonyl)-3-cyclopropylacrylonitrile] | depleted |

Same assay, conditions: protein target at higher concentration than compound; before perturbation

| SMILES | Compound in solution in the native state? |
| --- | --- |
| N#CC(=CC1CC1)C(=O)N1CCC[C@@H](n2cc(-c3ccc(Oc4ccccc4)cc3)c3c(N)ncnc32)C1 [Example 27, (R)-2-(3-(4-amino-5-(4-phenoxyphenyl)-7H-pyrrolo[2,3-d]pyrimidin-7-yl)piperidine-1-carbonyl)-3-cyclopropylacrylonitrile] | no |

Reference: patent publication US8962831B2, “Tyrosine kinase inhibitors” (Principia Biopharma Inc., priority 2011, dated 2015)
